Assay results from patent publication US12171801B2, “Compositions and related methods for controlling vector-borne diseases” (priority 2017, dated 2024).
“Also recorded” adds a separate entry of the source.

What was measured:
Escherichia coli DH5a = assay: Antibiotic coating and penetration of corn kernels (E. coli growth on LB plates); assay type: cell-based; conditions: kernels soaked in 2.5 or 0.25 mg/ml
[1] = test system: Sitophilus primary endosymbiont (SPE, Candidatus Sodalis pierantonius); assay: Sitophilus primary endosymbiont (SPE) level by qPCR in weevils; assay type: in vivo, Sitophilus zeamais; conditions: for SPE amount, water-treated weevils versus treated (F0): 18 days of treatment
Experimental: Sitophilus maize weevils (Sitophilus zeamais) were reared on organic corn at 27.5° C. and 70% relative humidity. Prior to being used for weevil rearing, corn was frozen for 7 days and then tempered to 10% humidity with sterile water. […] Ciprofloxacin (Sigma) stock solutions were made at 25 mg/ml in 0.1 N HCl, sterilized by passing through a 0.22 μm syringe filter, and stored at −20° C. For treatments, the appropriate amount of stock solution was diluted in sterile water.
(§1) Weevil survival was monitored daily for 18 days, after which DNA was extracted from the remaining weevils in each group. Briefly, the weevil body was surface sterilized by dipping the weevil into a 6% bleach solution for approximately 5 seconds. Weevils were then rinsed in sterile water and DNA was extracted from each individual aphid using a DNA extraction kit (Qiagen, DNeasy kit) according to manufacturer's instructions. […]; SEQ ID NO: 243). […]; SEQ ID NO: 245) (Login et al., 2011). qPCR was performed using a qPCR amplification ramp of 1.6 degrees C./s and the following conditions: 1) 95° C. for 10 minutes, 2) 95° C. for 15 seconds, 3) 57° C. for 30 seconds, 4) repeat steps 2-3 40×, 5) 95° C. for 15 seconds, 6) 55° C. for 1 minute, 7) ramp change to 0.15 degrees C./s, 8) 95° C. for 1 second. qPCR data was analyzed using analytic (Thermo Fisher Scientific, QuantStudio Design and Analysis) software.

Sitophilus zeamais [2] = assay: Weevil survival; assay type: in vivo; conditions: 250 μg/ml or 2.5 mg/ml, 18 days
Description: as §1

Sitophilus zeamais [3] = assay: Development of F1 weevils in dissected corn kernels; assay type: in vivo; conditions: 250 ug/ml and 2.5 mg/ml
Sitophilus zeamais [4] = assay: Emergence of F1 weevils (fecundity); conditions: 2.5 mg/ml, till day 43

## O=C(O)c1cn(C2CC2)c2cc(N3CCNCC3)c(F)cc2c1=O [ciprofloxacin]
Escherichia coli DH5a
  E. coli growth on plates with entire soaked corn kernels: inhibition of bacterial growth; also recorded: no bacteria grew
[1]; 250 ug/ml
  SPE amount, water-treated weevils versus treated (F0): approximately 4 fold higher
[1]; 2.5 mg/ml
  SPE amount, water-treated weevils versus treated (F0): ~8 fold higher
[1]; 2.5 mg/ml, F1 weevils dissected from corn kernels
  SPE level, water-treated F1 weevils versus treated: approximately 4 fold higher
Sitophilus zeamais [2]
  weevil survival: all weevils remained alive
Sitophilus zeamais [3]
  development of F1 weevils: delay in development
Sitophilus zeamais [4]
  emerged F1 offspring: much less offspring
